Laboratory results as given in the kinase profiling compilation of Christmann-Franck et al. (2016).

How the values were obtained:
Assay in all cases: KINOMEscan competition binding
Conditions in all cases: compound 10.0 µM
ADCK4 (human) = ADCK4 (human) (UniProt Q96D53)
BMPR2 (human) = BMPR2 (human) (UniProt Q13873)
CAMK2A (human) = CAMK2A (human) (UniProt Q9UQM7)
CDK16 (human) = CDK16 (human) (UniProt Q00536)
CDKL1 (human) = CDKL1 (human) (UniProt Q00532)
CDKL5 (human) = CDKL5 (human) (UniProt O76039)
CLK3 (human) = CLK3 (human) (UniProt P49761)
CSNK1A1L (human) = CSNK1A1L (human) (UniProt Q8N752)
CSNK2A1 (human) = CSNK2A1 (human) (UniProt P68400)
DAPK1 (human) = DAPK1 (human) (UniProt P53355)
DCLK2 (human) = DCLK2 (human) (UniProt Q8N568)
DCLK3 (human) = DCLK3 (human) (UniProt Q9C098)
EGFR (human) = EGFR (human) (UniProt P00533)
EPHA4 (human) = EPHA4 (human) (UniProt P54764)
EPHA6 (human) = EPHA6 (human) (UniProt Q9UF33)
FLT4 (human) = FLT4 (human) (UniProt P35916)
GSK3A (human) = GSK3A (human) (UniProt P49840)
HCK (human) = HCK (human) (UniProt P08631)
LIMK1 (human) = LIMK1 (human) (UniProt P53667)
MAK (human) = MAK (human) (UniProt P20794)
MAP2K4 (human) = MAP2K4 (human) (UniProt P45985)
MAP3K10 (human) = MAP3K10 (human) (UniProt Q02779)
MAPK12 (human) = MAPK12 (human) (UniProt P53778)
MAPK14 (human) = MAPK14 (human) (UniProt Q16539)
MAPKAPK2 (human) = MAPKAPK2 (human) (UniProt P49137)
MAPKAPK5 (human) = MAPKAPK5 (human) (UniProt Q8IW41)
MUSK (human) = MUSK (human) (UniProt O15146)
NEK1 (human) = NEK1 (human) (UniProt Q96PY6)
NEK2 (human) = NEK2 (human) (UniProt P51955)
NTRK2 (human) = NTRK2 (human) (UniProt Q16620)
NTRK3 (human) = NTRK3 (human) (UniProt Q16288)
PIK3C2G (human) = PIK3C2G (human) (UniProt O75747)
PIK3CD (human) = PIK3CD (human) (UniProt O00329)
PIM2 (human) = PIM2 (human) (UniProt Q9P1W9)
PRKACA (human) = PRKACA (human) (UniProt P17612)
SIK2 (human) = SIK2 (human) (UniProt Q9H0K1)
STK35 (human) = STK35 (human) (UniProt Q8TDR2)
STK36 (human) = STK36 (human) (UniProt Q9NRP7)
TIE1 (human) = TIE1 (human) (UniProt P35590)
TTK (human) = TTK (human) (UniProt P33981)
TTK (human), sequence (P33981 whole entry, looked up): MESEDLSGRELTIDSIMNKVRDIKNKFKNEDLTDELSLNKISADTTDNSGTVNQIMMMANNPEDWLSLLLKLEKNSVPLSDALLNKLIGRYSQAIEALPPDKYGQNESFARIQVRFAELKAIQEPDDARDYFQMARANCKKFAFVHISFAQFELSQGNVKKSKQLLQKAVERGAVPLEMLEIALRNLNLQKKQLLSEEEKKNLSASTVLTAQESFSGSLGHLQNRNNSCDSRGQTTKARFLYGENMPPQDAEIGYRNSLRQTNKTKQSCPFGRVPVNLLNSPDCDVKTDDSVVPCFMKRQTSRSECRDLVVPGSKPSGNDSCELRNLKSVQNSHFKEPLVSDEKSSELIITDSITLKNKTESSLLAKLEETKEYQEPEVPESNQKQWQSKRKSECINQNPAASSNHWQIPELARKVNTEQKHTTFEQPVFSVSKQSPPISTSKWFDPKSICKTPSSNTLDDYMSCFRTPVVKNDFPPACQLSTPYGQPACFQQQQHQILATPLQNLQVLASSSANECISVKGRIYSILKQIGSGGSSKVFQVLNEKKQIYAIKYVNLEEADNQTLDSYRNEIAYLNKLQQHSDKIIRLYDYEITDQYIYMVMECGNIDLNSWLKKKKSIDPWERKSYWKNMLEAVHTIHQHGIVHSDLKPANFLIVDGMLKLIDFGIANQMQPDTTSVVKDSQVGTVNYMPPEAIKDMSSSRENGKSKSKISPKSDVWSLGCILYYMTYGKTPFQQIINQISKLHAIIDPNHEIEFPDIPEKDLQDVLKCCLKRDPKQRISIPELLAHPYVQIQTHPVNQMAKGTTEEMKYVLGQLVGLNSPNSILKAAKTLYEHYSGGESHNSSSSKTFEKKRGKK

HCK (human), sequence (P08631 whole entry, looked up): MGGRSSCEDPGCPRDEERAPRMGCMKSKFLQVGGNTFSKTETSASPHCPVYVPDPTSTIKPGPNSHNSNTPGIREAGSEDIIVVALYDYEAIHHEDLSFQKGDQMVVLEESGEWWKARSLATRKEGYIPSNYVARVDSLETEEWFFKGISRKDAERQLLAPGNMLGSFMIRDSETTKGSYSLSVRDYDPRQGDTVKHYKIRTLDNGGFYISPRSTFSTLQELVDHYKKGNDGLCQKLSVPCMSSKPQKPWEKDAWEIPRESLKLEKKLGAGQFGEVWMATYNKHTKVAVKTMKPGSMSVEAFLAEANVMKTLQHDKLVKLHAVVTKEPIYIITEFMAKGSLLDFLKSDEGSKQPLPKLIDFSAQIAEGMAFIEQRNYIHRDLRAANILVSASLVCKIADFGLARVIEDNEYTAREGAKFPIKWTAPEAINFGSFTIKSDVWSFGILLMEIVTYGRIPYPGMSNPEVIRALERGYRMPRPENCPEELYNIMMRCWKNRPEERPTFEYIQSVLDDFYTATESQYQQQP
DAPK1 (human), sequence (P53355 whole entry, looked up): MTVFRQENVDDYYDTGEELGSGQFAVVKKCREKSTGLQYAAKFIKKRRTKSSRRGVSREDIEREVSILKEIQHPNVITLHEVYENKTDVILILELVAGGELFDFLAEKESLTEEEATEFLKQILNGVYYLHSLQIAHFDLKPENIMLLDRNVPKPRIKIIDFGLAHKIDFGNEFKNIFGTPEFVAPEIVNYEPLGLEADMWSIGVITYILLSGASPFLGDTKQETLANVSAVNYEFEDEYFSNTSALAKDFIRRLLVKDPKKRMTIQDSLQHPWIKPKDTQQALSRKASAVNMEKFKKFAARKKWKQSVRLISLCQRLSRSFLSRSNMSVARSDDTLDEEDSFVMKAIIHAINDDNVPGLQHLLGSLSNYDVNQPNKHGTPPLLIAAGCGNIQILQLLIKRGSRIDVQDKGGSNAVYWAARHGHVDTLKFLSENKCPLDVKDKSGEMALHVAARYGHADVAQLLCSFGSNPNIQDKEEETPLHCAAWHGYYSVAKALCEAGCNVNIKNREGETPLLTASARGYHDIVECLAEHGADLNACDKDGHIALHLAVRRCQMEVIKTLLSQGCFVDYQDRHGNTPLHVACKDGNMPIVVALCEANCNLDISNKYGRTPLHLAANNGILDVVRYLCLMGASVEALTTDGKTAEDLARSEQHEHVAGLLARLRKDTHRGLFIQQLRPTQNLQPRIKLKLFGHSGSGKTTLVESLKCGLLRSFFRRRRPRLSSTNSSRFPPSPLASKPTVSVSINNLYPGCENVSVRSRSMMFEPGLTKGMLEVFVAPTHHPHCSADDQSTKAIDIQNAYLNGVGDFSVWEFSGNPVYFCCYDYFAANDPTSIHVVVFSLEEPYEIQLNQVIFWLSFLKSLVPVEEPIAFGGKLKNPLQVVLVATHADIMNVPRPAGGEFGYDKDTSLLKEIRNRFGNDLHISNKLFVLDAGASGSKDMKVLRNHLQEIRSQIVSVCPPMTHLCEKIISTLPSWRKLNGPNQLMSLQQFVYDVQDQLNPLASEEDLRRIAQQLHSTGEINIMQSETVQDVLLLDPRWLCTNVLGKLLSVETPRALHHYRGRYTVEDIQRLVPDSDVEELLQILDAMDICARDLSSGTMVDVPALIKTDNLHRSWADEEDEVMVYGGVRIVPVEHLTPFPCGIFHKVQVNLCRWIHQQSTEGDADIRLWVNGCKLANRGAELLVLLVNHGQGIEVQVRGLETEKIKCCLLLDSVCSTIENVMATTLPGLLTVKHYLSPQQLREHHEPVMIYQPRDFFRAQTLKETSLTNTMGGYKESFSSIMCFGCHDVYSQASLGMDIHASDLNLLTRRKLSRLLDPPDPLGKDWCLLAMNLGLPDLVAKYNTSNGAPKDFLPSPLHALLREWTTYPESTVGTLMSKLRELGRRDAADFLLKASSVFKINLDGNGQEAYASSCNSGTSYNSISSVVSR
DCLK3 (human), sequence (Q9C098 whole entry, looked up): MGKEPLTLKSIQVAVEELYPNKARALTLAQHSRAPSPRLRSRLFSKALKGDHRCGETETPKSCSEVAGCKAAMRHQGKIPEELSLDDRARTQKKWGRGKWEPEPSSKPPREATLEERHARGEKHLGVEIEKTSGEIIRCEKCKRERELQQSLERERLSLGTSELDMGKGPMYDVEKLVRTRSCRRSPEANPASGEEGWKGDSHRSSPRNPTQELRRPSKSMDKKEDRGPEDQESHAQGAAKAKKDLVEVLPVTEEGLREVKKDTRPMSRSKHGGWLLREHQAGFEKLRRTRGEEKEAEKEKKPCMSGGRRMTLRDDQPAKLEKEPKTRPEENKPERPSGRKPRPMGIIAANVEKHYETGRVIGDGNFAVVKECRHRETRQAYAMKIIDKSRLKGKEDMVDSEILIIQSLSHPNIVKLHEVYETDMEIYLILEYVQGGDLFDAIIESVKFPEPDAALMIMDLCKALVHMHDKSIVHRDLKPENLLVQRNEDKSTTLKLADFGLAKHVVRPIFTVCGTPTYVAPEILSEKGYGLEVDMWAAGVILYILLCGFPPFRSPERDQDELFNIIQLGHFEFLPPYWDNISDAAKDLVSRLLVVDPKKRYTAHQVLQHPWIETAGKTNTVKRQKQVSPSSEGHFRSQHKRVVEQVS
GSK3A (human), sequence (P49840 whole entry, looked up): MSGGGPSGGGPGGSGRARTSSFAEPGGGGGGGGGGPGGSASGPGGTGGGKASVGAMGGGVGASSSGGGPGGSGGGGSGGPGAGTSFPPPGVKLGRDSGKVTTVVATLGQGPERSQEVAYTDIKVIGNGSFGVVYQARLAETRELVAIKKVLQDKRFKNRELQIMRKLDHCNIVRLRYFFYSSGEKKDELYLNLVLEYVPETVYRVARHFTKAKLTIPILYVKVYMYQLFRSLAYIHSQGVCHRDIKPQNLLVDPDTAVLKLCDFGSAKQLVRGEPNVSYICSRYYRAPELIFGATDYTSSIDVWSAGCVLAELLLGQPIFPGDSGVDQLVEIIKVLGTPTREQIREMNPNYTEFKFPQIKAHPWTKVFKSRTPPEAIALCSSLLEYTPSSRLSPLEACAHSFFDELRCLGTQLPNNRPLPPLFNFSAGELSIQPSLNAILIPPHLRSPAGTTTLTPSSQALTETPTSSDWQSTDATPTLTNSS
ADCK4 (human), sequence (Q96D53 whole entry, looked up): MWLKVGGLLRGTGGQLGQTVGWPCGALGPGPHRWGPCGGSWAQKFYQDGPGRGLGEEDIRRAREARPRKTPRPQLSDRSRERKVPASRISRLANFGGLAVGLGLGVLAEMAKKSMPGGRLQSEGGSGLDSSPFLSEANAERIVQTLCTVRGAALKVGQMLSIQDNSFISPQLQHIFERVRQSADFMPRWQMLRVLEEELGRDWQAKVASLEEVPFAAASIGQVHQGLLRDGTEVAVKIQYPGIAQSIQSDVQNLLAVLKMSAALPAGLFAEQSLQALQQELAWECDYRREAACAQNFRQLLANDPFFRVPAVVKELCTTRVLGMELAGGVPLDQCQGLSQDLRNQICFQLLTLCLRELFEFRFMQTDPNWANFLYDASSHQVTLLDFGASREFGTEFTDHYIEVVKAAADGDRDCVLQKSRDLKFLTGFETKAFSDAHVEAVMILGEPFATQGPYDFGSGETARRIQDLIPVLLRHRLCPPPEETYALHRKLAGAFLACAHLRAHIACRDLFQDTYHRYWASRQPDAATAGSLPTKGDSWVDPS
MAPK12 (human), sequence (P53778 whole entry, looked up): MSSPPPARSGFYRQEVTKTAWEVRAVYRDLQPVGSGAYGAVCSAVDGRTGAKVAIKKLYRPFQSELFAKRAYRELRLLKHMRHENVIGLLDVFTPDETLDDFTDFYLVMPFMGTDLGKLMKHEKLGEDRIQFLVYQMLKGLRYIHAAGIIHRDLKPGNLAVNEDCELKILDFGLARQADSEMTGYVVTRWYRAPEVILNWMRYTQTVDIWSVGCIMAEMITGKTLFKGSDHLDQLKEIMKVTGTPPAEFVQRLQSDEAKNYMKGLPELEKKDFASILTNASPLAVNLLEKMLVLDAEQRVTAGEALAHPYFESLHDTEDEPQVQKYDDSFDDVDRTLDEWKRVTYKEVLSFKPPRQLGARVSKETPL

SMILES	kinase still bound, per cent of control (ADCK4 (human)) [%]	kinase still bound, per cent of control (BMPR2 (human)) [%]	kinase still bound, per cent of control (CAMK2A (human)) [%]	kinase still bound, per cent of control (CDK16 (human)) [%]	kinase still bound, per cent of control (CDKL1 (human)) [%]	kinase still bound, per cent of control (CDKL5 (human)) [%]	kinase still bound, per cent of control (CLK3 (human)) [%]	kinase still bound, per cent of control (CSNK1A1L (human)) [%]	kinase still bound, per cent of control (CSNK2A1 (human)) [%]	kinase still bound, per cent of control (DAPK1 (human)) [%]	kinase still bound, per cent of control (DCLK2 (human)) [%]	kinase still bound, per cent of control (DCLK3 (human)) [%]	kinase still bound, per cent of control (EGFR (human)) [%]	kinase still bound, per cent of control (EPHA4 (human)) [%]	kinase still bound, per cent of control (EPHA6 (human)) [%]	kinase still bound, per cent of control (FLT4 (human)) [%]	kinase still bound, per cent of control (GSK3A (human)) [%]	kinase still bound, per cent of control (HCK (human)) [%]	kinase still bound, per cent of control (LIMK1 (human)) [%]	kinase still bound, per cent of control (MAK (human)) [%]	also measured
O=C(Nc1cccc(Nc2ncc(Br)c(NCCc3cnc[nH]3)n2)c1)N1CCCC1	33	13	27	40	1.8	1.8	74	32	0.3	1.2	70	48	47	100	54	0.05	60	42	38	100	kinase still bound, per cent of control (MAP2K4 (human)): 0.3%; kinase still bound, per cent of control (MAP3K10 (human)): 0%; kinase still bound, per cent of control (MAPK12 (human)): 65%; kinase still bound, per cent of control (MAPK14 (human)): 100%; kinase still bound, per cent of control (MAPKAPK2 (human)): 100%; kinase still bound, per cent of control (MAPKAPK5 (human)): 28%; kinase still bound, per cent of control (MUSK (human)): 9.4%; kinase still bound, per cent of control (NEK1 (human)): 30%; kinase still bound, per cent of control (NEK2 (human)): 6.2%; kinase still bound, per cent of control (NTRK2 (human)): 0.45%; kinase still bound, per cent of control (NTRK3 (human)): 2.6%; kinase still bound, per cent of control (PIK3C2G (human)): 25%; kinase still bound, per cent of control (PIK3CD (human)): 84%; kinase still bound, per cent of control (PIM2 (human)): 100%; kinase still bound, per cent of control (PRKACA (human)): 0.95%; kinase still bound, per cent of control (SIK2 (human)): 8%; kinase still bound, per cent of control (STK35 (human)): 67%; kinase still bound, per cent of control (STK36 (human)): 18%; kinase still bound, per cent of control (TIE1 (human)): 2.2%; kinase still bound, per cent of control (TTK (human)): 5%
COc1ccc(N(C(=O)Oc2c(C)cccc2C)c2ccnc(Nc3ccc(N4CCN(C)CC4)cc3)n2)c(OC)c1	20	0.2	84	98	100	100	88	100	66	73	44	100	0.4	0	0	16	100	0.15	0	69	kinase still bound, per cent of control (MAP2K4 (human)): 100%; kinase still bound, per cent of control (MAP3K10 (human)): 19%; kinase still bound, per cent of control (MAPK12 (human)): 75%; kinase still bound, per cent of control (MAPK14 (human)): 52%; kinase still bound, per cent of control (MAPKAPK2 (human)): 100%; kinase still bound, per cent of control (MAPKAPK5 (human)): 100%; kinase still bound, per cent of control (MUSK (human)): 43%; kinase still bound, per cent of control (NEK1 (human)): 76%; kinase still bound, per cent of control (NEK2 (human)): 100%; kinase still bound, per cent of control (NTRK2 (human)): 82%; kinase still bound, per cent of control (NTRK3 (human)): 100%; kinase still bound, per cent of control (PIK3C2G (human)): 98%; kinase still bound, per cent of control (PIK3CD (human)): 92%; kinase still bound, per cent of control (PIM2 (human)): 100%; kinase still bound, per cent of control (PRKACA (human)): 1.6%; kinase still bound, per cent of control (SIK2 (human)): 7.6%; kinase still bound, per cent of control (STK35 (human)): 24%; kinase still bound, per cent of control (STK36 (human)): 0.95%; kinase still bound, per cent of control (TIE1 (human)): 5.8%; kinase still bound, per cent of control (TTK (human)): 42%
